Experiments:
[1] = target: T1, enzyme FAAH (Fatty Acid Amide Hydrolase) (Mus musculus, UniProt O08914); assay: FAAH fluorescence enzymatic test, hydrolysis of AAMC (protocol 2); format: biochemical; settings: mouse brain homogenate, AAMC 10 μM, 20 mins preincubation at 25° C., 40 mins at 37° C., read-out: IC50 (concentration inhibiting 50% of the control enzymatic activity of FAAH)
T1 construct: The membrane homogenates are prepared extemporaneously by homogenizing the tissues; from tissue; host or cells: mouse brain (minus the cerebellum), homogenate
T1 sequence (O08914 1-579): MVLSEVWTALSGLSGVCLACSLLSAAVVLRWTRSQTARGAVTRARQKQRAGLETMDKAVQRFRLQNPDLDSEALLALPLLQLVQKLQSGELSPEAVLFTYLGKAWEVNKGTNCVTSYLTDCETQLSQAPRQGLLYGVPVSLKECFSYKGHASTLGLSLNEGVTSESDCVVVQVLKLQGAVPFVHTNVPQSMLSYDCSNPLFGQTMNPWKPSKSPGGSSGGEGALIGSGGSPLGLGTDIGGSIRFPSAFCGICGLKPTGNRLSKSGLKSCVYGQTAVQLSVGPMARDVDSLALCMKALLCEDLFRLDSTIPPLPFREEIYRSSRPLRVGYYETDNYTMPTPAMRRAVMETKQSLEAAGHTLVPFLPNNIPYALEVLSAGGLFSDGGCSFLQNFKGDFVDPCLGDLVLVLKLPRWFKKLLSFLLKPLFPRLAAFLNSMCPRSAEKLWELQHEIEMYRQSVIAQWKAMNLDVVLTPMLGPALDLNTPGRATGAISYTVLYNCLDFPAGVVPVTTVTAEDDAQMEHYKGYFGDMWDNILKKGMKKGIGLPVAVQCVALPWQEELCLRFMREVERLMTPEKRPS
Method: The compounds of the invention were subjected to pharmacological tests to determine their inhibitory effect on the enzyme FAAH (Fatty Acid Amide Hydrolase).
Thus, mouse brains (minus the cerebellum) are removed and stored at −80° C. The brain homogenates are prepared extemporaneously by homogenizing the tissues using a Precellys® machine in the reaction buffer (10 mM Tris-HCl, pH=8, 150 mM NaCl and 1 mM ethylenediamine-tetraacetic acid (EDTA)). The enzymatic reaction is performed in black polystyrene 384-well plates in a final volume of 50 μl. Reaction buffer supplemented with fatty acid-free bovine serum albumin (BSA, 1 mg/ml) is used for the enzymatic reaction, dilution of the compounds and dilution of the AAMC. The reaction buffer containing BSA (25 μl/well), the diluted test compounds at different concentrations (5 μl/well containing 1% DMSO) and the membrane preparation (10 μl/well, i.e. 200 μg of tissue per test) are successively added to the wells. After preincubation of the compounds with the enzyme for 20 mins at 25° C., the reaction is started by addition of 10 μl of substrate per well (AAMC, final concentration 10 μM). After incubation for 40 mins at 37° C., the aminomethyl coumarin (AMC) produced is measured by fluorescent counting (Envision plate reader).

male OF1 mice = assay: test of analgesia: PBQ-induced abdominal stretching; format: in vivo, mouse; settings: 30 mg/kg p.o. at 120 mins before PBQ
Method: The in vivo activity of the compounds of the invention was evaluated in a test of analgesia.
Thus, the intraperitoneal (i.p.) administration of PBQ (phenylbenzoquinone, 2 mg/kg in 0.9% sodium chloride solution containing 5% ethanol) to male OF1 mice weighing 25 to 30 g causes abdominal stretching, on average 30 torsions or contractions during the period of 5 to 15 mins after injection. The test compounds are administered orally (p.o.) or intraperitoneally (i.p.) suspended in Tween 80 at 0.5%, 60 mins or 120 mins before the administration of PBQ. Under these conditions, the most powerful compounds reduce by 35% to 80% the number of stretches induced by the PBQ, in a dosage range lying between 1 and 30 mg/kg. For example, compound 25 of Table 1 reduces by 50% the number of stretches induced by the PBQ, at a dose of 30 mg/kg p.o. at 120 mins.

Row | SMILES | IC50 [1] | reduction of the number of stretches induced by the PBQ (male OF1 mice) | melting point
1 | CNC(=O)c1cc(COC(=O)N2CC3(CC(Oc4ccc(-c5ccc(F)cc5)cc4)C3)C2)on1 [Compound 25, 3-methylcarbamoyl-isoxazol-5-ylmethyl 6-(4′-fluorobiphenyl-4-yloxy)-2-aza-spiro[3.3]heptane-2-carboxylate] | 0.46 nM | 50% | 163 to 165 °C
2 | CNC(=O)c1cc(COC(=O)N2CCC3(CC2)CC(Oc2ccc(-c4ccc(F)cc4)cc2)C3)on1 [Compound 19, 3-methylcarbamoyl-isoxazol-5-ylmethyl 2-(4′-fluorobiphenyl-4-yloxy)-7-aza-spiro[3.5]nonane-7-carboxylate] | 1.7 nM |  | 174 to 176 °C

From patent publication US8394787B2, “7-aza-spiro[3.5]nonane-7-carboxylate derivatives, preparation thereof and therapeutic use thereof” (Sanofi, priority 2009, dated 2013)
